PubChem BioAssay AID1918948 (Molecular Pharmacology Branch, DTP, NCI, 2023)

Tested on: K-562 leukemia growth, % test/control
Test: Anticancer human tumor K-562 cell line growth inhibition;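 note: spheroids exposed to compounds for 7 days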;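 for viability, T/C: 100% = DMSO vehicle wells and lower values mean fewer viable cells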
Details: spheroids with HUVEC and MSC; for IC50: curve of first compound; for viability, T/C: stronger effect = lower value
Procedure, shortened: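 Drug combinations with the LSD1 inhibitor iadademstat tested on tumor cells co-cultured as spheroids with endothelial cells and mesenchymal stem cells. Concentrations descended in half-log increments from clinical Cmax or 10 microM.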

[1] = second compound 0.1 µM, first compound 0.000949 µM
[2] = second compound 0.1 µM, first compound 0.003 µM
[3] = second compound 0.1 µM, first compound 0.00949 µM
[4] = second compound 0.1 µM, first compound 0.03 µM
[5] = second compound 0.1 µM, first compound 0.0949 µM
[6] = second compound 0.1 µM, first compound 0.3 µM
[7] = second compound 0.316 µM, first compound 0.000949 µM
[8] = second compound 0.316 µM, first compound 0.003 µM
[9] = second compound 0.316 µM, first compound 0.00949 µM
[10] = second compound 0.316 µM, first compound 0.03 µM
[11] = second compound 0.316 µM, first compound 0.0949 µM
[12] = second compound 0.316 µM, first compound 0.3 µM
[13] = second compound 1 µM, first compound 0.000949 µM
[14] = second compound 1 µM, first compound 0.003 µM
[15] = second compound 1 µM, first compound 0.00949 µM
[16] = second compound 1 µM, first compound 0.03 µM
[17] = second compound 1 µM, first compound 0.0949 µM
[18] = second compound 1 µM, first compound 0.3 µM
[19] = second compound 3.16 µM, first compound 0.000949 µM
[20] = second compound 3.16 µM, first compound 0.003 µM
[21] = second compound 3.16 µM, first compound 0.00949 µM
[22] = second compound 3.16 µM, first compound 0.03 µM
[23] = second compound 3.16 µM, first compound 0.0949 µM
[24] = second compound 3.16 µM, first compound 0.3 µM
[25] = second compound 10 µM, first compound 0.000949 µM
[26] = second compound 10 µM, first compound 0.003 µM
[27] = second compound 10 µM, first compound 0.00949 µM
[28] = second compound 10 µM, first compound 0.03 µM
[29] = second compound 10 µM, first compound 0.0949 µM
[30] = second compound 10 µM, first compound 0.3 µM

## CCc1c2c(nc3ccc(O)cc13)-c1cc3c(c(=O)n1C2)COC(=O)[C@]3(O)CC + NC1CC1c1ccc(-c2cccc(O)c2)cc1
Second compound 0.1 µM
  IC50: < 0.949 nM
Second compound 0.316 µM
  IC50: < 0.949 nM
Second compound 1 µM
  IC50: < 0.949 nM
Second compound 3.16 µM
  IC50: < 0.949 nM
Second compound 10 µM
  IC50: < 0.949 nM
[1]
  viability, T/C: 10.6%
[2]
  viability, T/C: 4.88%
[3]
  viability, T/C: 2.16%
[4]
  viability, T/C: 0.75%
[5]
  viability, T/C: 0.56%
[6]
  viability, T/C: 0.55%
[7]
  viability, T/C: 8.09%
[8]
  viability, T/C: 3.51%
[9]
  viability, T/C: 1.86%
[10]
  viability, T/C: 0.71%
[11]
  viability, T/C: 0.44%
[12]
  viability, T/C: 0.5%
[13]
  viability, T/C: 7.04%
[14]
  viability, T/C: 3.48%
[15]
  viability, T/C: 1.67%
[16]
  viability, T/C: 0.89%
[17]
  viability, T/C: 0.51%
[18]
  viability, T/C: 0.57%
[19]
  viability, T/C: 7.47%
[20]
  viability, T/C: 4.23%
[21]
  viability, T/C: 2.63%
[22]
  viability, T/C: 0.67%
[23]
  viability, T/C: 0.46%
[24]
  viability, T/C: 0.55%
[25]
  viability, T/C: 5.81%
[26]
  viability, T/C: 2.92%
[27]
  viability, T/C: 1.32%
[28]
  viability, T/C: 0.74%
[29]
  viability, T/C: 0.43%
[30]
  viability, T/C: 1.23%

## Nc1ccccc1NC(=O)c1ccc(CNC(=O)OCc2cccnc2)cc1 + NC1CC1c1ccc(-c2cccc(O)c2)cc1
Second compound 0.1 µM
  IC50: 180 nM
Second compound 0.316 µM
  IC50: 173 nM
Second compound 1 µM
  IC50: 165 nM
Second compound 3.16 µM
  IC50: 152 nM
Second compound 10 µM
  IC50: 121 nM
[3]
  viability, T/C: 114%
[4]
  viability, T/C: 111%
[5]
  viability, T/C: 103%
[6]
  viability, T/C: 7.04%
Second compound 0.1 µM, first compound 0.949 µM
  viability, T/C: 0.24%
Second compound 0.1 µM, first compound 3 µM
  viability, T/C: 1.31%
[9]
  viability, T/C: 114%
[10]
  viability, T/C: 109%
[11]
  viability, T/C: 97.1%
[12]
  viability, T/C: 6.48%
Second compound 0.316 µM, first compound 0.949 µM
  viability, T/C: 0.2%
Second compound 0.316 µM, first compound 3 µM
  viability, T/C: 0.13%
[15]
  viability, T/C: 111%
[16]
  viability, T/C: 110%
[17]
  viability, T/C: 92%
[18]
  viability, T/C: 5.06%
Second compound 1 µM, first compound 0.949 µM
  viability, T/C: 0.25%
Second compound 1 µM, first compound 3 µM
  viability, T/C: 0.13%
[21]
  viability, T/C: 111%
[22]
  viability, T/C: 111%
[23]
  viability, T/C: 81.3%
[24]
  viability, T/C: 4.61%
Second compound 3.16 µM, first compound 0.949 µM
  viability, T/C: 0.18%
Second compound 3.16 µM, first compound 3 µM
  viability, T/C: 1.02%
[27]
  viability, T/C: 104%
[28]
  viability, T/C: 98.5%
[29]
  viability, T/C: 62.6%
[30]
  viability, T/C: 3.34%
Second compound 10 µM, first compound 0.949 µM
  viability, T/C: 0.19%
Second compound 10 µM, first compound 3 µM
  viability, T/C: 1.28%

## Nc1ccn(C2OC(CO)C(O)C2(F)F)c(=O)n1 (stereo not given) + NC1CC1c1ccc(-c2cccc(O)c2)cc1
Second compound 0.1 µM
  IC50: 9.42 nM
Second compound 0.316 µM
  IC50: 8.17 nM
Second compound 1 µM
  IC50: 7.91 nM
Second compound 3.16 µM
  IC50: 6.77 nM
Second compound 10 µM
  IC50: 5.86 nM
[1]
  viability, T/C: 105%
[2]
  viability, T/C: 99.8%
[3]
  viability, T/C: 49.8%
[4]
  viability, T/C: 12.8%
[5]
  viability, T/C: 10.7%
[6]
  viability, T/C: 11.8%
[7]
  viability, T/C: 107%
[8]
  viability, T/C: 102%
[9]
  viability, T/C: 42.1%
[10]
  viability, T/C: 10.5%
[11]
  viability, T/C: 8.16%
[12]
  viability, T/C: 8.05%
[13]
  viability, T/C: 106%
[14]
  viability, T/C: 102%
[15]
  viability, T/C: 40.2%
[16]
  viability, T/C: 7.41%
[17]
  viability, T/C: 7.12%
[18]
  viability, T/C: 7.2%
[19]
  viability, T/C: 103%
[20]
  viability, T/C: 101%
[21]
  viability, T/C: 29%
[22]
  viability, T/C: 6.83%
[23]
  viability, T/C: 6.72%
[24]
  viability, T/C: 7.82%
[25]
  viability, T/C: 100%
[26]
  viability, T/C: 93.2%
[27]
  viability, T/C: 19%
[28]
  viability, T/C: 5.75%
[29]
  viability, T/C: 6.04%
[30]
  viability, T/C: 7.9%

## O=C(c1cc(Cc2n[nH]c(=O)c3ccccc23)ccc1F)N1CCN(C(=O)C2CC2)CC1 + NC1CC1c1ccc(-c2cccc(O)c2)cc1
Second compound 0.1 µM
  IC50: 9600 nM
Second compound 0.316 µM
  IC50: 9550 nM
Second compound 1 µM
  IC50: > 10000 nM
Second compound 3.16 µM
  IC50: > 10000 nM
Second compound 10 µM
  IC50: 8390 nM
Second compound 0.1 µM, first compound 0.0316 µM
  viability, T/C: 111%
Second compound 0.1 µM, first compound 0.1 µM
  viability, T/C: 108%
Second compound 0.1 µM, first compound 0.316 µM
  viability, T/C: 108%
Second compound 0.1 µM, first compound 1 µM
  viability, T/C: 106%
Second compound 0.1 µM, first compound 3.16 µM
  viability, T/C: 94.3%
Second compound 0.1 µM, first compound 10 µM
  viability, T/C: 48.4%
Second compound 0.316 µM, first compound 0.0316 µM
  viability, T/C: 107%
Second compound 0.316 µM, first compound 0.1 µM
  viability, T/C: 103%
Second compound 0.316 µM, first compound 0.316 µM
  viability, T/C: 102%
Second compound 0.316 µM, first compound 1 µM
  viability, T/C: 101%
Second compound 0.316 µM, first compound 3.16 µM
  viability, T/C: 90.2%
Second compound 0.316 µM, first compound 10 µM
  viability, T/C: 47.9%
Second compound 1 µM, first compound 0.0316 µM
  viability, T/C: 98%
Second compound 1 µM, first compound 0.1 µM
  viability, T/C: 100%
Second compound 1 µM, first compound 0.316 µM
  viability, T/C: 102%
Second compound 1 µM, first compound 1 µM
  viability, T/C: 98.8%
Second compound 1 µM, first compound 3.16 µM
  viability, T/C: 89.9%
Second compound 1 µM, first compound 10 µM
  viability, T/C: 50.1%
Second compound 3.16 µM, first compound 0.0316 µM
  viability, T/C: 104%
Second compound 3.16 µM, first compound 0.1 µM
  viability, T/C: 101%
Second compound 3.16 µM, first compound 0.316 µM
  viability, T/C: 100%
Second compound 3.16 µM, first compound 1 µM
  viability, T/C: 96.9%
Second compound 3.16 µM, first compound 3.16 µM
  viability, T/C: 87.8%
Second compound 3.16 µM, first compound 10 µM
  viability, T/C: 51.2%
Second compound 10 µM, first compound 0.0316 µM
  viability, T/C: 100%
Second compound 10 µM, first compound 0.1 µM
  viability, T/C: 99.8%
Second compound 10 µM, first compound 0.316 µM
  viability, T/C: 101%
Second compound 10 µM, first compound 1 µM
  viability, T/C: 96%
Second compound 10 µM, first compound 3.16 µM
  viability, T/C: 79.2%
Second compound 10 µM, first compound 10 µM
  viability, T/C: 44.7%
